From PubChem BioAssay (NCI) come the findings set out here.

Test systems include CCRF-CEM leukemia; EKVX NSCLC; HCC-2998 colon; HOP-92 NSCLC; LOX IMVI melanoma; NCI-H460 lung; OVCAR-3 ovarian; SN12C renal; SNB-19 CNS; SNB-75 CNS.
Experiment in all cases: NCI tumour cell line growth inhibition, 48 h

Molecules are shown by their SMILES. Where “and” joins values, the source holds several entries; their conditions need not be identical. Equal values may be shown once.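 Five concentrations, 48 hours, 96-well plates. At the GI50, growth is halved. TGI marks complete inhibition of growth.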

With `CC(C)=CC[C@@H]1CC2(CC=C(C)C)C(=O)C(OC3(C(=O)c4ccccc4)C(=O)C4(CC=C(C)C)C[C@@H](CC=C(C)C)C(C)(C)C(CC=C(C)C)(C4=O)C3=O)(C(=O)c3ccccc3)C(=O)C(CC=C(C)C)(C2=O)C1(C)C` (stereo partly drawn), the GI50 in the assay on CCRF-CEM leukemia is 1.64 µM; in the assay on EKVX NSCLC it was 1.2 µM; in the assay with HCC-2998 colon, 1.21 µM; with HOP-92 NSCLC, 1.08 µM; in the assay on LOX IMVI melanoma, 1.23 µM; with NCI-H460 lung, 1.27 µM. For the same compound, the GI50 in the assay on OVCAR-3 ovarian is 1.24 µM; with SN12C renal, 1.54 µM; in the assay with SNB-19 CNS, 1.64 µM; in the assay with SNB-75 CNS, 1.11 µM. Further, the TGI in the assay on CCRF-CEM leukemia is 5.52 µM; with EKVX NSCLC it was 4.2 µM; with HCC-2998 colon it was 3.09 µM; with HOP-92 NSCLC, 2.86 µM; in the assay on LOX IMVI melanoma it was 3.24 µM; in the assay with NCI-H460 lung, 3.07 µM. Moreover, the TGI came to 3.25 µM in the assay with OVCAR-3 ovarian, 5.67 µM in the assay on SN12C renal, 6.65 µM with SNB-19 CNS and 5.62 µM with SNB-75 CNS.

Consider `CC(=O)OCC1C(=O)OCC1C(=O)N1Cc2cc3ccccc3nc2C1` (stereo not drawn), for which the TGI was 3.79 µM in the assay on CCRF-CEM leukemia; 17.3 µM in the assay on EKVX NSCLC; 22.9 µM in the assay on HCC-2998 colon; 3.77 µM in the assay on HOP-92 NSCLC; 5.66 µM with LOX IMVI melanoma; 28.8 µM in the assay on NCI-H460 lung. For the same compound, the TGI with OVCAR-3 ovarian amounted to 6.14 µM; with SN12C renal, 14.4 µM; in the assay with SNB-19 CNS, 32.8 µM; in the assay on SNB-75 CNS, 14.9 µM.

`Cc1ccc(NC(=O)c2ccc(CN3CCN(C)CC3)cc2)cc1Nc1nc(-c2cccnc2)cs1`: the GI50 is 4.14 µM and 4.81 µM in the assay on CCRF-CEM leukemia; 13.6 µM and > 10 µM in the assay with EKVX NSCLC; 11.8 µM and > 10 µM in the assay on HCC-2998 colon; 11 µM and > 10 µM in the assay with HOP-92 NSCLC; 2.47 µM and 3.06 µM in the assay on LOX IMVI melanoma; 7.33 µM and 5.34 µM with NCI-H460 lung. Further, the GI50 with OVCAR-3 ovarian is 11.7 µM and 3.5 µM; in the assay on SN12C renal it was 13.9 µM and > 10 µM; with SNB-19 CNS, 14.4 µM and 6.37 µM; with SNB-75 CNS it was 14.8 µM and 7.43 µM. Besides, the TGI with CCRF-CEM leukemia was 28.1 µM and > 10 µM; in the assay with EKVX NSCLC it was 29.8 µM and > 10 µM; in the assay on HCC-2998 colon, 26 µM and > 10 µM; in the assay on HOP-92 NSCLC it was 24.2 µM and > 10 µM; with LOX IMVI melanoma, 5.8 µM and > 10 µM; in the assay with NCI-H460 lung, 22.5 µM and > 10 µM. In addition, the TGI with OVCAR-3 ovarian was 24.3 µM and > 10 µM; in the assay with SN12C renal, 36 µM and > 10 µM; with SNB-19 CNS, 29.7 µM and > 10 µM; with SNB-75 CNS, 28.5 µM and > 10 µM.

`O=C(O)/C=C/c1ccc(O)c(O)c1`: the TGI with CCRF-CEM leukemia, in the assay on EKVX NSCLC, in the assay on HCC-2998 colon, in the assay with HOP-92 NSCLC, with LOX IMVI melanoma and with NCI-H460 lung was greater than 100 µM in each case. Further, the TGI with OVCAR-3 ovarian, in the assay with SN12C renal, in the assay on SNB-19 CNS and in the assay on SNB-75 CNS was greater than 100 µM each time.

As to `CCCCn1c(=O)[nH]c(N)c([C@@H]2c3c([nH]c(=O)n(CCCC)c3=O)Oc3ccc4ccccc4c32)c1=O`, the GI50 is 0.326 µM with CCRF-CEM leukemia; 4.64 µM with EKVX NSCLC; 1.67 µM with HCC-2998 colon; 2 µM in the assay with HOP-92 NSCLC; 1.29 µM in the assay with LOX IMVI melanoma; 2.19 µM in the assay on NCI-H460 lung. The GI50 in the assay with OVCAR-3 ovarian is 1.63 µM; in the assay with SN12C renal it was 2.51 µM; in the assay with SNB-19 CNS it was 1.72 µM; with SNB-75 CNS it was 1.71 µM. Also, the TGI with CCRF-CEM leukemia worked out at 1.38 µM; in the assay on EKVX NSCLC, 18.8 µM; in the assay on HCC-2998 colon, 3.47 µM; with HOP-92 NSCLC, 6.5 µM; in the assay on LOX IMVI melanoma, 2.69 µM; with NCI-H460 lung, 5.05 µM. Also, the TGI was found to be 2.98 µM in the assay with OVCAR-3 ovarian, 6.94 µM in the assay on SN12C renal, 3.36 µM in the assay on SNB-19 CNS and 9.62 µM with SNB-75 CNS.

For `N#CC1=C(N)Oc2c(sc3c(Br)cccc23)C1c1ccc([N+](=O)[O-])cc1` (stereo not drawn), the GI50 in the assay on CCRF-CEM leukemia is 0.121 µM; in the assay on EKVX NSCLC, 0.462 µM; in the assay on HCC-2998 colon, 0.284 µM; in the assay with HOP-92 NSCLC it was 0.0441 µM; in the assay with LOX IMVI melanoma, 0.127 µM; in the assay with NCI-H460 lung it was 0.0655 µM. For the same compound, the GI50 with OVCAR-3 ovarian is 0.0403 µM; in the assay with SN12C renal it was 1 µM; with SNB-19 CNS it was 0.139 µM; in the assay on SNB-75 CNS, 0.0595 µM. Besides, the TGI in the assay on CCRF-CEM leukemia stood at 9.89 µM; with EKVX NSCLC, 19.4 µM; in the assay on HCC-2998 colon, 6.94 µM; in the assay on HOP-92 NSCLC, 8.82 µM; in the assay on LOX IMVI melanoma, 4.31 µM; in the assay with NCI-H460 lung, 10.4 µM. The TGI is 0.849 µM with OVCAR-3 ovarian, 13.1 µM in the assay on SN12C renal, 13 µM with SNB-19 CNS and 8.41 µM in the assay with SNB-75 CNS.

As for `Nc1c(C(=O)Nc2cccc(Cl)c2)sc2nc3c(cc12)C(=O)CCC3`, the GI50 in the assay on CCRF-CEM leukemia was 0.383 µM; in the assay on HCC-2998 colon, 0.849 µM; in the assay on LOX IMVI melanoma, 0.905 µM; with NCI-H460 lung it was 0.322 µM; in the assay on OVCAR-3 ovarian, 0.305 µM; in the assay with SN12C renal, 0.836 µM. In addition, the GI50 in the assay with SNB-19 CNS was 0.529 µM; in the assay with SNB-75 CNS, 0.227 µM. The TGI in the assay with CCRF-CEM leukemia, in the assay with EKVX NSCLC, with HCC-2998 colon, in the assay on HOP-92 NSCLC, in the assay on LOX IMVI melanoma and with NCI-H460 lung was greater than 100 µM each time. Further, the TGI is greater than 100 µM in the assay on OVCAR-3 ovarian, greater than 100 µM with SN12C renal, greater than 100 µM in the assay on SNB-19 CNS and 2.47 µM in the assay on SNB-75 CNS.

As to `Nc1ccc(/C=C/c2ccc3ncccc3c2)cc1`, the GI50 was 0.821 µM with CCRF-CEM leukemia; 31.7 µM in the assay on EKVX NSCLC; greater than 100 µM in the assay with HCC-2998 colon; 12.9 µM with HOP-92 NSCLC; 75 µM with LOX IMVI melanoma; greater than 100 µM with NCI-H460 lung. Further, the GI50 was greater than 100 µM in the assay with OVCAR-3 ovarian, greater than 100 µM in the assay with SN12C renal, greater than 100 µM in the assay with SNB-19 CNS and 37.1 µM in the assay on SNB-75 CNS. Besides, the TGI in the assay on CCRF-CEM leukemia, in the assay with EKVX NSCLC, in the assay with HCC-2998 colon, in the assay with HOP-92 NSCLC, in the assay with LOX IMVI melanoma and in the assay with NCI-H460 lung was greater than 100 µM each time. The TGI with OVCAR-3 ovarian, with SN12C renal, in the assay on SNB-19 CNS and with SNB-75 CNS was greater than 100 µM each time.
